We go through 1 molecule from the NIST ThermoML archive (doi:10.1016/j.jct.2014.04.011).

SMILES strings stand for the structures. Numbers after ± are expanded uncertainties.

A short description of data set [1]: Molar enthalpy of transition or fusion. The following applies: Crystal; DSC.
The conditions of data set [2]: Crystal; DTA.

With `CC(C)(C)C(=O)C(Oc1ccc(Cl)cc1)n1ccnc1` (configuration not stated) [1-(4-Chlorophenoxy)-1-(imidazol-1-yl)-3,3-dimethylbutanone], the “Molar enthalpy of transition or fusion” value in data set [1] worked out at 6.93 ± 0.239 kcal/mol. Also, in data set [2], the Triple point temperature amounted to 372 ± 0.7 K.
